Assay results as given in PMC10746103, “Development of a HPLC-MS/MS Method to Assess the Pharmacokinetics and Tumour Distribution of the Dimethylarginine Dimethylaminohydrolase 1 Inhibitors ZST316 and L-257 in a Xenograft Model of Triple-Negative Breast Cancer in Mice” (Molecules, 2023).
“And” between values parts separate entries of the source, which are not always exact repeats. Identical values can stand only once. “Also recorded” adds a separate entry of the source.

Experiments:
[1] = Tumour distribution of ZST316 and L-257 after intraperitoneal ZST316 in MDA-MB-231 TNBC xenograft (HPLC-MS/MS); assay type: in vivo, SCID mice; details: for time intra-tumour concentration remained above the IC50 and Ki values for DDAH1 inhibition: estimated
Experimental: (§1) Six-week-old female severe combined immunodeficiency disease (SCID) mice (n = 24; Charles River Laboratories Italia S.r.L., Calco, Lecco, Italy), were housed under rigorous standards and handled under pathogen-free conditions in the Animal Care Facilities of the Mario Negri Institute for Pharmacological Research (Milan, Italy).
(§2) Two ×10^6 (in 10 μL) MDA-MB-231 TNBC cells were transplanted into the mammary fat pad. Tumour growth was regularly monitored with a calliper and treatment with ZST316 was given when the tumour volume reached 400–500 mm^3. Mice received either a single dose (acute treatment) or a daily dose of ZST316 30 mg/Kg intraperitoneally for five days (chronic treatment).
(§3) Plasma and tumour tissue (n = 3 mice/each time point) were sampled at 1, 8 and 24 h after treatment (on day 5 for the chronic treatment). To collect plasma, mice were anesthetized by isoflurane, the blood was drained from the retro-orbital plexus into heparinised tubes and centrifuged for 10 min at 4000× g at 4 °C. Tumours were collected and immediately frozen. Plasma and tumour samples were stored at −20 °C until analysis.
Control MDA-MB-231 TNBC cell tumours were homogenized with NH4COOH 50 mM (1:4, w:v). The homogenate (90 μL) was spiked with 5 μL of ZST316 and L-257 working solutions prepared in the range of 100–10,000 ng/mL generating seven tumour calibration standards in the range 25–5000 ng/g. The calibration curve included also a blank and a zero blank standard plasma sample (processed with IS). To prepare QC samples, 90 μL of the homogenate was mixed with an appropriate amount of QC working solutions to obtain QC plasma samples at the nominal concentration of 75, 375, and 1250 ng/g.
The procedure was similar to that described for plasma in Section 3.3.2.
(§4) Reversed-phase chromatography was performed under gradient conditions with separation on a HILIC column, C18, 3 μm, 100 A, 2.1 × 150 mm, Waters (Milford, MA, USA), coupled with a 3 μm, 3.9 × 5.0 mm guard column of the same material at the flow rate of 0.2 mL/min. Gradient features were: 10% mobile phase (MP) A (NH4HCO2 10 mM, 10% CH3CN, 0.1% HCOOH) and 90% MP B (CH3CN, 0.1% HCOOH) as initial constant condition; then to 90% MP A in 6 min and constant condition for 1.5 min. Return to start condition in 0.5 min and conditioning for 5.5 min. Total run time: 13.5 min. Analyte detection and quantification were performed using tandem mass spectrometry (MS/MS) operating in positive ionization mode as previously reported for ZST316 and ZST152 [31].

[2] = target: DDAH1; details: cited from earlier work
[3] = Stability of ZST316 and L-257 in frozen plasma; assay type: in vitro ADME, mice; details: for Mean found value, Stability −20 °C / Accuracy (%), Stability −20 °C: plasma QC, one month at −20 °C; for Mean found value, Stability −20 °C: n=3; for Accuracy (%), Stability −20 °C: percent of nominal
Experimental: The stability of ZST316 and L-257 in plasma was assessed by analysing QC samples containing both compounds after prolonged storage in the same conditions of the study samples.
Stability was determined by analysing 3 QCs per concentration level immediately after the preparation, and 3 QCs per concentration level after one month of storage at −20 °C. The analytes were considered stable at each QC concentration when the freshly prepared samples and the stability test samples differed by no more than 15% from the nominal concentrations.

[4] = Plasma pharmacokinetics of ZST316 and L-257 after intraperitoneal ZST316 in MDA-MB-231 xenograft mice (HPLC-MS/MS); assay type: in vivo, SCID mice
Experimental: as §1, §2, §3
To assay ZST316 and L-257, 10 μL of IS (ZST152 WS: 500 ng/mL) were added to 100 μL of study plasma samples, standards, and QCs in a polypropylene tube. The samples were then added with 10 μL of NH4COOH 50 mM, mixed and added with 400 μL CH3OH:0.1% HCOOH, vortex mixed again and centrifuged at 13,200 rpm for 10 min at 4 °C. The supernatant was transferred to a 1.5 mL Eppendorf tube, dried under nitrogen flow and reconstituted with 100 μL of mobile phase (MP) A:B (1:1, v/v). Finally, the samples were centrifuged at 13,200 rpm for 10 min at 4 °C and the supernatant transferred into vials for HPLC-MS/MS analysis.
as §4

[5] = acute (single dose) ZST316 30 mg/Kg i.p., 1 h
[6] = acute ZST316 30 mg/Kg i.p., 1 h
[7] = acute ZST316 30 mg/Kg i.p., 8 h
[8] = acute ZST316 30 mg/Kg i.p., 8 h, n=3
[9] = acute ZST316 30 mg/Kg i.p., 24 h
[10] = acute ZST316 30 mg/Kg i.p., approximately estimated due to limited time points
[11] = chronic (five-day) ZST316 30 mg/Kg i.p. daily, 1 h
[12] = chronic (five-day) ZST316 30 mg/Kg i.p. daily, 24 h
[13] = chronic ZST316 30 mg/Kg i.p. daily
[14] = chronic ZST316 30 mg/Kg i.p. daily, day 5, 1 h
[15] = chronic ZST316 30 mg/Kg i.p. daily, day 5, 8 h
[16] = chronic ZST316 30 mg/Kg i.p. daily, day 5, 8 h, n=3
[17] = chronic ZST316 30 mg/Kg i.p. daily, day 5, 24 h
[18] = chronic ZST316 30 mg/Kg i.p. daily, approximately estimated due to limited time points
[19] = range over acute and chronic treatment

mean intra-tumour concentration [1, 5]: 3.5 µg/g
mean intra-tumour concentration ([1]; acute (single dose) ZST316 30 mg/Kg i.p., 24 h): 0.04 µg/g
Cmax tumour ([1]; acute ZST316 30 mg/Kg i.p.): 3.50 μg/g and 15.08 μM
tumour AUC ([1]; acute ZST316 30 mg/Kg i.p.): 23.9 µg·h/g
mean tumour concentration [1, 8]: 645 ng/g and 2.78 μM
half-life tumour [1, 10]: 3.6 h
time intra-tumour concentration remained above the IC50 and Ki values for DDAH1 inhibition ([1]; after acute ZST316 treatment): 4 h
time intra-tumour concentration remained above the IC50 and Ki values for DDAH1 inhibition ([1]; after chronic ZST316 treatment): 3.5 h
mean intra-tumour concentration [1, 11]: 3.24 µg/g
mean intra-tumour concentration [1, 12]: 0.10 µg/g
Cmax tumour [1, 13]: 3.24 μg/g and 13.96 μM
tumour AUC [1, 13]: 20.3 µg·h/g
mean tumour concentration [1, 16]: 381 ng/g and 1.64 μM
mean tumour concentration [1, 17]: 97 ng/g
mean tumour concentration ([1]; chronic ZST316 30 mg/Kg i.p. daily, day 5, 24 h, n=3): 0.30 µM
half-life tumour [1, 18]: 4.9 h
half-life tumour [1, 19]: 3.6 to 4.9 h
measured concentration in unknown study tumour sample (Figure 3) ([1]; representative chromatogram, sample taken at 24 h after acute treatment (b8)): 30.7 ng/g
stability in frozen plasma ([3]; at least one month at −20 °C): stable
Mean found value, Stability −20 °C ([3]; actual value 15.00 ng/mL): 15.8 ng/mL
Accuracy (%), Stability −20 °C ([3]; actual value 15.00 ng/mL): 105.6%
Mean found value, Stability −20 °C ([3]; actual value 75.00 ng/mL): 75.7 ng/mL
Accuracy (%), Stability −20 °C ([3]; actual value 75.00 ng/mL): 101.0%
Mean found value, Stability −20 °C ([3]; actual value 250.00 ng/mL): 259.5 ng/mL
Accuracy (%), Stability −20 °C ([3]; actual value 250.00 ng/mL): 103.8%
mean plasma concentration [4, 5]: 2.02 µg/mL
Cmax ([4]; acute ZST316 30 mg/Kg i.p.): 8.7 µM
Cmax plasma ([4]; acute ZST316 30 mg/Kg i.p.): 2020 ng/mL
Plasma AUC1–24 h ([4]; acute ZST316 30 mg/Kg i.p.): 0.061
Plasma AUC1–24 h ([4]; acute ZST316 30 mg/Kg i.p. (day 1)): 14.1 µg·h/mL
mean plasma concentration [4, 8]: 385 ng/mL and 1.66 μM
half-life plasma [4, 10]: 4.2 h
mean plasma concentration [4, 11]: 1.60 µg/mL
mean plasma concentration [4, 12]: 0.06 µg/mL
Cmax [4, 13]: 6.89 µM
Cmax plasma [4, 13]: 1600 ng/mL
Plasma AUC1–24 h [4, 13]: 0.044
Plasma AUC1–24 h ([4]; chronic ZST316 30 mg/Kg i.p. daily (day 5)): 10.3 µg·h/mL
mean plasma concentration [4, 16]: 198 ng/mL and 0.85 μM
half-life plasma [4, 18]: 5.3 h
half-life plasma [4, 19]: 4.2 to 5.3 h
measured concentration in unknown study plasma sample (Figure 2) ([4]; representative chromatogram, sample taken at 1 h after acute treatment (b8)): 1710 ng/mL
Structure (SMILES): COCCNC(N)=NCCC[C@H](N)C(=O)O [L-257]
tumour concentration, individual mice [1, 6]: 3590 ng/g and 2810 ng/g and 4090 ng/g and 15.5 µM and 12.1 µM and 17.6 µM
tumour concentration, individual mice [1, 7]: 225 ng/g and 1060 ng/g and 2.8 µM and 0.97 µM and 4.57 µM and 651 ng/g
tumour concentration, individual mice [1, 9]: 30.7 ng/g and 33.1 ng/g and 56.1 ng/g and 0.13 µM and 0.14 µM and 0.24 µM
tumour concentration, individual mice [1, 14]: 3550 ng/g and 2810 ng/g and 3350 ng/g and 15.29 µM and 12.10 µM and 14.43 µM
tumour concentration, individual mice [1, 15]: 413 ng/g and 403 ng/g and 326 ng/g and 1.78 µM and 1.74 µM and 1.40 µM
tumour concentration, individual mice [1, 17]: 35.5 ng/g and 159 ng/g and < LOQ and 0.15 µM and 0.68 µM and 0.05 µM
Ki ([2]; dotted line in figures): 7 µM
Ki expressed as concentration ([2]; equivalent of 7 μM): 1.625 µg/mL
accumulation in plasma and tumour during chronic treatment ([4]; ZST316 30 mg/Kg i.p. daily for five days, day 5 vs day 1): without accumulation; also recorded: no accumulation
plasma concentration, individual mice [4, 6]: 2610 ng/mL and 1700 ng/mL and 1760 ng/mL and 11.24 µM and 7.32 µM and 7.58 µM
plasma concentration, individual mice [4, 7]: 272 ng/mL and 382 ng/mL and 2.16 µM and 1.17 µM and 1.65 µM and 502 ng/mL
plasma concentration, individual mice [4, 9]: 38 ng/mL and 32.5 ng/mL and 47.8 ng/mL and 0.16 µM and 0.14 µM and 0.21 µM
plasma concentration, individual mice [4, 14]: 1600 ng/mL and 1500 ng/mL and 1710 ng/mL and 6.89 µM and 6.46 µM and 7.37 µM
plasma concentration, individual mice [4, 15]: 249 ng/mL and 136 ng/mL and 0.90 µM and 1.07 µM and 0.59 µM and 209 ng/mL
plasma concentration, individual mice [4, 17]: 58.8 ng/mL and 95.2 ng/mL and 29.1 ng/mL and 0.25 µM and 0.41 µM and 0.13 µM
